What was measured:
[1] = biological target: T1, C-C chemokine receptor type 4 (Homo sapiens, UniProt P51679); type: cell membranes, Chem-1, Membrane; conditions: chem-1; further: in other assays of this panel Not Active means under 50% inhibition at 10 µM
T1 sequence (P51679 whole entry): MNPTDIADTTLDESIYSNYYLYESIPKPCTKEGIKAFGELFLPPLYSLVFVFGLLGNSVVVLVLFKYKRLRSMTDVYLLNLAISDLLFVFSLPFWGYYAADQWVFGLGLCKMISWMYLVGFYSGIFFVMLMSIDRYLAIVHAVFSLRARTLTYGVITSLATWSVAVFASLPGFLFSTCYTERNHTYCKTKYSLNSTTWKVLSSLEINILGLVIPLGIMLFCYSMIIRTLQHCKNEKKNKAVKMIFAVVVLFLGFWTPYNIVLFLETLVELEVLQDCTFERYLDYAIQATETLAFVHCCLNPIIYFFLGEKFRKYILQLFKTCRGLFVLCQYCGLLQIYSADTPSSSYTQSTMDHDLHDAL

[2] = biological target: T2, Alpha-2C adrenergic receptor (Homo sapiens, UniProt P18825); assay: DRUGMATRIX: Adrenergic Alpha-2C radioligand binding (ligand: [3H] MK-912); type: cell membranes, Sf9, Membrane; conditions: sf9
T2 sequence (P18825 whole entry): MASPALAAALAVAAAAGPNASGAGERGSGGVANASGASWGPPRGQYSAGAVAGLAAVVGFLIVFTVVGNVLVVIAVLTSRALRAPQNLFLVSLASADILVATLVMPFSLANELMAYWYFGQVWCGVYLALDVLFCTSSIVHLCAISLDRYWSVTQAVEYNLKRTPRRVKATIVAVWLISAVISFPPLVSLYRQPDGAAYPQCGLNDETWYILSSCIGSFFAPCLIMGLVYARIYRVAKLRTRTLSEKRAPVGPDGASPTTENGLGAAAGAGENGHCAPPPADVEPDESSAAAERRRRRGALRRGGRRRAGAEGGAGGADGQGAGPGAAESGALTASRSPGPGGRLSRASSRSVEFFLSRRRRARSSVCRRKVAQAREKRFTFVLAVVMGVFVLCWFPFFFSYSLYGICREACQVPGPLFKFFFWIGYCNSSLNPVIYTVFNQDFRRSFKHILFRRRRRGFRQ

[3] = DRUGMATRIX: Calcium Channel Type L, Benzothiazepine radioligand binding (ligand: [3H] Diltiazem); type: cell membranes, Rattus norvegicus, Wistar, Brain, Membrane; conditions: Not Active = under 50% inhibition at 10 µM
Neutrophil elastase = biological target: T3, Neutrophil elastase (Homo sapiens, UniProt P08246); type: tissue-based;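 further: inhibition of neutrophil elastase enzyme activity, measured with a p-nitroanilide-linked peptide substrate; in other assays of this panel Not Active means under 50% inhibition at 10 µM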
T3 sequence (P08246 whole entry): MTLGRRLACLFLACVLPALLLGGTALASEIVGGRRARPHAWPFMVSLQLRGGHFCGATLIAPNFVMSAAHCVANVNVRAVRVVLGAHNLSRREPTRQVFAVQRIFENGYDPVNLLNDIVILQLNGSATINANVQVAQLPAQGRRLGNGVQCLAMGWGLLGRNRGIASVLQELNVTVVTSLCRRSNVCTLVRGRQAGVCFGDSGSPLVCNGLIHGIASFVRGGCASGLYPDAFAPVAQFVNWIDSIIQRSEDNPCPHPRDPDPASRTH

[4] = biological target: Protein kinase C alpha type (Homo sapiens, UniProt P17252); type: cell-based; conditions: sf9;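 further: inhibition of PKCalpha kinase activity measured in an enzyme assay with histone as the phosphorylation substrate; in other assays of this panel Not Active means under 50% inhibition at 10 µM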
[5] = biological target: T4, Polyunsaturated fatty acid lipoxygenase ALOX15 (Oryctolagus cuniculus, UniProt P12530); assay: biochemical; type: tissue-based, Reticulocytes;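 further: inhibition of 15-lipoxygenase enzyme activity measured with linoleic acid as the substrate; in other assays of this panel Not Active means under 50% inhibition at 10 µM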
T4 sequence (P12530 whole entry): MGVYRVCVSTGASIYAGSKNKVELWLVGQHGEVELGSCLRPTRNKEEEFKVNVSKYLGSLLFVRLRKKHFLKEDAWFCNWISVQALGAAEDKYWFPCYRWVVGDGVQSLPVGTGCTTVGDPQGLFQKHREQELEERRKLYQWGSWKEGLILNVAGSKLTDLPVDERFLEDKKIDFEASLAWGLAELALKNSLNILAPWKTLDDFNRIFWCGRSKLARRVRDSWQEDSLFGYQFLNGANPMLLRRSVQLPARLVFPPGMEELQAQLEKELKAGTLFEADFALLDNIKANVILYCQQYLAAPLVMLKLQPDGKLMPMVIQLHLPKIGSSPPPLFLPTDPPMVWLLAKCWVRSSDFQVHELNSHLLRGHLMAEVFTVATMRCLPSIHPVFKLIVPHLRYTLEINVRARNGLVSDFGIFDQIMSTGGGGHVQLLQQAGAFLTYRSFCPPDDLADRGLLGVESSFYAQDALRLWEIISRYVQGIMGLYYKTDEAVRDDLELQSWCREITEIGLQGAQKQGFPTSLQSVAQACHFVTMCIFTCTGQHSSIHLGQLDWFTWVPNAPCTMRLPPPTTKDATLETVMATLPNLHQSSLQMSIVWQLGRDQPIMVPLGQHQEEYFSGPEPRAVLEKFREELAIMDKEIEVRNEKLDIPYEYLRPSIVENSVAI

[6] = biological target: T5, Neuropeptide Y receptor type 2 (Homo sapiens, UniProt P49146); type: cell membranes, Membrane; conditions: kan-ts; further: in other assays of this panel Not Active means under 50% inhibition at 10 µM
T5 sequence (P49146 whole entry): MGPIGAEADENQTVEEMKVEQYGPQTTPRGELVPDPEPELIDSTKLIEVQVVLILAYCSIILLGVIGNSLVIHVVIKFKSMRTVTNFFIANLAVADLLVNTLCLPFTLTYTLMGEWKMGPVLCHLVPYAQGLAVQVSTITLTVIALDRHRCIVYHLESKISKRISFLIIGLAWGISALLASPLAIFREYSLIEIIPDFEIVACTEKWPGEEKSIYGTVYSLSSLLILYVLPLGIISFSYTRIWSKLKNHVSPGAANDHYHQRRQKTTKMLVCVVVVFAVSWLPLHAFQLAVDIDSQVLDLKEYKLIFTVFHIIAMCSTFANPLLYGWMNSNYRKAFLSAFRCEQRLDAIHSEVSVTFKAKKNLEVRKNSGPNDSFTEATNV

Structure (SMILES)	IC50 [1]	IC50 [2]	IC50 [3]	Ki [3]	IC50 (Neutrophil elastase)	IC50 [4]	IC50 ([5]; reticulocytes)	IC50 [6]	IC50 ([5]; read-out: IC50) [nM]	IC50 ([3]; read-out: IC50) [nM]	Ki ([3]; read-out: Ki) [nM]	Ki [1]	Ki [2]	Ki (Neutrophil elastase)	Ki [4]	Ki ([5]; reticulocytes)	Ki [6]
CC(C)CN(C[C@@H](O)[C@H](Cc1ccccc1)NC(=O)O[C@H]1CCOC1)S(=O)(=O)c1ccc(N)cc1	Not Active	Not Active	Not Active	Not Active	Not Active	Not Active	Not Active	Not Active									
c1ccc(Nc2ccc(Nc3ccccc3)cc2)cc1	Not Active	Not Active	Not Active	Not Active	Not Active	Not Active		Not Active	2880								
COc1cc2c3cc1Oc1cc(ccc1O)C[C@@H]1c4c(cc(OC)c(O)c4Oc4ccc(cc4)C[C@@H]3N(C)CC2)CC[N+]1(C)C.[Cl-]	Not Active	Not Active	Not Active	Not Active	Not Active	Not Active	Not Active	Not Active									
NC(=O)N1c2ccccc2CCc2ccccc21	Not Active	Not Active	Not Active	Not Active	Not Active	Not Active	Not Active	Not Active									
O=C1CC[C@@H](N2C(=O)c3ccccc3C2=O)C(=O)N1	Not Active	Not Active	Not Active	Not Active	Not Active	Not Active	Not Active	Not Active									
Cc1onc(O)c1CC(N)C(=O)O (racemic) [(R,S)-AMPA]	Not Active	Not Active	Not Active	Not Active	Not Active	Not Active	Not Active	Not Active									
Cc1ccc2cc3c(ccc4ccccc43)c3c2c1CC3 [3-METHYLCHOLANTHRENE]	Not Active	Not Active	Not Active	Not Active	Not Active	Not Active	Not Active	Not Active									
CC[C@@]1(O)C[C@H](O[C@H]2C[C@H](N(C)C)[C@H](O[C@H]3C[C@H](O)[C@H](O[C@H]4CCC(=O)[C@H](C)O4)[C@H](C)O3)[C@H](C)O2)c2c(cc3c(c2O)C(=O)c2c(O)cccc2C3=O)[C@H]1C(=O)OC [ACLARUBICIN]	Not Active	Not Active	Not Active	Not Active	Not Active	Not Active	Not Active	Not Active									
Nc1nc2c(ncn2COCCO)c(=O)[nH]1 [ACYCLOVIR]	Not Active	Not Active	Not Active	Not Active	Not Active	Not Active	Not Active	Not Active									
Cc1c(C)c2c(c(C)c1O)CC[C@@](C)(CCC[C@H](C)CCC[C@H](C)CCCC(C)C)O2 [ALPHA-TOCOPHEROL]	Not Active	Not Active	Not Active	Not Active	Not Active	Not Active	Not Active	Not Active									
CN(C)c1nc(N(C)C)nc(N(C)C)n1 [ALTRETAMINE]	Not Active	Not Active	Not Active	Not Active	Not Active	Not Active	Not Active	Not Active									
Nc1c(Br)cc(Br)cc1CN[C@H]1CC[C@H](O)CC1 [AMBROXOL]	Not Active	Not Active	Not Active	Not Active	Not Active	Not Active	Not Active	Not Active									
NCCCCCC(=O)O [AMINOCAPROIC ACID]	Not Active	Not Active	Not Active	Not Active	Not Active	Not Active	Not Active	Not Active									
CCC1(c2ccc(N)cc2)CCC(=O)NC1=O (centres undefined) [AMINOGLUTETHIMIDE]	Not Active	Not Active	Not Active	Not Active	Not Active	Not Active	Not Active	Not Active									
Cc1ccc(/N=C/N(C)/C=N/c2ccc(C)cc2C)c(C)c1 [AMITRAZ]	Not Active	Not Active	Not Active	Not Active	Not Active	Not Active	Not Active	Not Active									
CCOC(=O)C1=C(COCCN)NC(C)=C(C(=O)OC)C1c1ccccc1Cl (centres undefined) [AMLODIPINE]	Not Active				Not Active	Not Active	Not Active	Not Active		101	90						
COc1ccc(C[C@H]2NC[C@H](O)[C@H]2OC(C)=O)cc1 [ANISOMYCIN]	Not Active	Not Active	Not Active	Not Active	Not Active	Not Active	Not Active	Not Active				Not Active	Not Active	Not Active	Not Active	Not Active	Not Active
Nc1ncn([C@@H]2O[C@H](CO)[C@@H](O)[C@H]2O)c(=O)n1 [AZACITIDINE]	Not Active	Not Active	Not Active	Not Active	Not Active	Not Active	Not Active	Not Active									
CN(C)C(=O)Oc1cc(OC(=O)N(C)C)cc(C(O)CNC(C)(C)C)c1 (centres undefined) [BAMBUTEROL]	Not Active	Not Active	Not Active	Not Active	Not Active	Not Active	Not Active	Not Active									
c1ccc2c(c1)c1cccc3ccc4cccc2c4c31 [BENZO[E]PYRENE]	Not Active	Not Active	Not Active	Not Active	Not Active	Not Active	Not Active	Not Active									
CN(C)CCCN1c2ccccc2Sc2ccc(Cl)cc21 [CHLORPROMAZINE]	Not Active				Not Active	Not Active		Not Active	16000	3210	2860						
Cc1ccc(N(CC2=NCCN2)c2cccc(O)c2)cc1 [PHENTOLAMINE]	Not Active		Not Active	Not Active	Not Active	Not Active	Not Active	Not Active									
